Test results published in ChEMBL document CHEMBL1158003, “Discorhabdin P, a new enzyme inhibitor from a deep-water Caribbean sponge of the genus Batzella” (J Nat Prod, 1999).
≈ marks a conversion by molar mass, not a printed value. Calls of active or inactive are those of the source. No cut-off for these calls is given here.

Columns and labels:
[1] = species on record: Bos taurus; assay: Inhibition of bovine brain calcineurin phosphatase activity at 5 ug/mL
[2] = biological target: T1, Caspase-3 (Homo sapiens) (UniProt P42574); assay: Inhibition of CPP32 peptidase activity at 5 ug/mL
T1 sequence (whole entry): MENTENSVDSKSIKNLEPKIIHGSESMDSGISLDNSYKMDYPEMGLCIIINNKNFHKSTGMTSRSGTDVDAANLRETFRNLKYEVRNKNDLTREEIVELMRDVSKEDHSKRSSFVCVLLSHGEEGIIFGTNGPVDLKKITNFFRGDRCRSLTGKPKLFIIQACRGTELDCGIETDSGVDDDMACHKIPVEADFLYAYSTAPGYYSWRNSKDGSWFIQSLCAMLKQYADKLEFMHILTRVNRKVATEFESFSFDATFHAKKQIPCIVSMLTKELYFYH

[3] = biological target: T1, Caspase-3 (Homo sapiens); assay: Inhibition of CPP32 peptidase activity at 50 nM
[4] = Inhibition of bovine brain calcineurin phosphatase activity; design: species or system Bos taurus
[5] = test system: A549; assay: Cytotoxicity against human A549 cells; type: functional, cell-based
[6] = test system: P388; assay: Cytotoxicity against mouse P388 cells; type: functional, cell-based

O=C1C(Br)=CC2(C=C1Br)CCNC1=C2C2=NCCc3c[nH]c(c32)C1=O
Activity [1]: inactive
Activity [2]: inactive

CC(C)[C@H](NC(=O)[C@H](CCC(=O)O)NC(=O)[C@@H](N)CC(=O)O)C(=O)N[C@H](C=O)CC(=O)O
inhibition [3]: 90%

Cn1cc2c3c1C(=O)C1=C(C3=NCC2)C2(C=C(Br)C(=O)C(Br)=C2)CCN1 [DISCORHABDIN]
IC50 [4]: 0.55 µg/mL (≈ 1.15 µM)
IC50 [5]: 0.41 µg/mL (≈ 0.859 µM)
IC50 [6]: 0.025 µg/mL (≈ 0.0524 µM)
